The values that follow come from ChEMBL document CHEMBL5154904, “Discovery and Structural Basis of the Selectivity of Potent Cyclic Peptide Inhibitors of MAGE-A4” (J Med Chem, 2022).

For test [1], the target named is T1, Melanoma-associated antigen 4 (Homo sapiens, UniProt P43358).
T1 sequence (P43358 whole entry): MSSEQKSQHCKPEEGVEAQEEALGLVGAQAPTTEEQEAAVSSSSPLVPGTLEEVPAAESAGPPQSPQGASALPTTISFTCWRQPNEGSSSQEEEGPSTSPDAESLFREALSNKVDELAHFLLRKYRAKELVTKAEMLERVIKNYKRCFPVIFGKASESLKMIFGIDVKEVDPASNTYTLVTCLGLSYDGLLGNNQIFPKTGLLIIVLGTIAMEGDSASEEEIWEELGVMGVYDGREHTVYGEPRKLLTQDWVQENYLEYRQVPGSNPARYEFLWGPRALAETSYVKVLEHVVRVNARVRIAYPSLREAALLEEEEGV
As to the kind of experiment: Binding affinity to MAGEA4 (unknown origin) expressed in Escherichia coli BL21-(DE3) by isothermal titration calorimetry. On the technique in general: Isothermal titration calorimetry measures the heat released or taken up as one component is titrated into another.

A short description of test [2]: Inhibition of biotinylated Eu-W1024 streptavidin-labeled MAGEA4 (unknown origin) expressed in Escherichia coli BL21-(DE3)/GST-tagged RAD18 (unknown origin) (267 to 402 residues) interaction using Ulight-anti-GST antibody incubated for 30 to 60 mins by LANCE TR-FRET assay. More on the design: species or system Homo sapiens. In general terms: TR-FRET usually uses a lanthanide donor and a delayed reading to cut background.

Test [3] has as its target T1, Melanoma-associated antigen 4. As to the kind of experiment: Inhibition of Eu-W1024 streptavidin-labeled MAGEA4 (unknown origin) expressed in Escherichia coli BL21-(DE3) incubated for 30 to 60 mins by LANCE TR-FRET assay.
Test [4] shares this target. The test can be described thus: Binding affinity to recombinant N-terminal His-tagged MAGEA4-MH domain (unknown origin) expressed in Escherichia coli BL21-(DE3) by isothermal titration calorimetry.
The species named for test [5] is Homo sapiens. As to the kind of experiment: Binding affinity to recombinant N-terminal His-tagged MAGEA4-MH domain Y5A mutant (unknown origin) expressed in Escherichia coli BL21-(DE3) assessed as inhibition of protein stabilization at 10 uM by TR-FRET assay.
Test [6] has as its target T2, Melanoma-associated antigen 4 (Homo sapiens) (UniProt P43358).
T2 sequence (whole entry): T1 sequence (P43358 whole entry)
The test can be described thus: Binding affinity to recombinant N-terminal His-tagged MAGEA4-MH domain (unknown origin) expressed in Escherichia coli BL21-(DE3) assessed as protection in trypsin-induced MAGEA4 protein degradation incubated for 1 hr by proteolysis based SDS-PAGE analysis.

The source made the active and inactive calls. No cut-off for these calls is given here. Positions of bridges follow the written chain, without caps; N, C: chain ends. Residues, ends and D or L forms follow the SMILES beside them.

As to `CC(C)C[C@@H]1NC(=O)[C@H](CCCNC(=N)N)NC(=O)[C@H](CS)NC(=O)[C@H](Cc2ccc(O)cc2)NC(=O)CSC[C@@H](C(N)=O)NC(=O)[C@H](Cc2ccc(O)cc2)NC(=O)[C@H]([C@@H](C)O)NC(=O)[C@H](CCCNC(=N)N)NC(=O)[C@H]2CCCN2C(=O)[C@H](CC(C)C)NC(=O)[C@H](Cc2cnc[nH]2)NC(=O)[C@H](Cc2ccc(O)cc2)NC(=O)[C@H](CC(=O)O)NC(=O)[C@H](Cc2ccc(O)cc2)NC1=O`, the Kd in test [1] came to 11.8 nM; in test [4], 6.5 nM. Moreover, the results for the IC50 in test [2] and in test [3] were less than 10 nM and less than 1 nM, respectively.

Turning to `CC(C)C[C@@H]1NC(=O)[C@H]([C@H](C)O)NC(=O)[C@H](C(C)C)NC(=O)[C@H](Cc2ccc(O)cc2)NC(=O)CSC[C@@H](C(N)=O)NC(=O)[C@H]([C@@H](C)O)NC(=O)[C@H]2CCCN2C(=O)[C@H](Cc2ccccc2)NC(=O)[C@H](CCCNC(=N)N)NC(=O)[C@H](CC(N)=O)NC(=O)[C@H](Cc2ccccc2)NC(=O)[C@H]([C@@H](C)O)NC(=O)[C@H](CCCNC(=N)N)NC1=O`, the results for the Kd in test [1] and in test [4] were 55.5 nM and 47.4 nM, respectively. The IC50 is 13.5 nM in test [2] and 1.26 nM in test [3].

Regarding `CC[C@H](C)[C@@H]1NC(=O)[C@H](Cc2ccc(O)cc2)NC(=O)CSC[C@@H](C(N)=O)NC(=O)[C@H](CC(N)=O)NC(=O)[C@H](Cc2cnc[nH]2)NC(=O)[C@H](Cc2ccc(O)cc2)NC(=O)[C@H](CC(=O)O)NC(=O)[C@H](C)NC(=O)[C@H](CC(C)C)NC(=O)[C@H](CCCNC(=N)N)NC1=O` ({CH2CO}-YIRLADYHNC-NH2; thioether N-10), the result in test [5] was Active.

Consider Ac-YIRLYDYHNC-NH2, for which, in test [3], the IC50 is less than 10000 nM. The outcome in test [6] was Active.

One may read the Kd as the constant that tells how readily two partners part at equilibrium. For orientation: IC50 means the point on the concentration scale where inhibition reaches its midpoint.
